EP0178388A1, “Quinolinecarboxylic acid derivatives” (KYORIN PHARMACEUTICAL CO., LTD., priority 1984, dated 1986)
≈ marks a conversion by molar mass, not a printed value. Counter-ions that a name gives are not always drawn. Like-named read-outs stand apart in the source and are kept apart here.

What was measured:
Type in all cases: cell-based
[1] = tested on: S. faecalis 214; assay: In vitro antibacterial activity, MIC (clinical isolates); details: Enterococcus faecalis; S. faecalis 214, 10^6 cells/ml, clinical isolate
[2] = tested on: S. agalactiae 4049; assay: as above; details: Streptococcus agalactiae; S. agalactiae 4049, 10^6 cells/ml, clinical isolate
[3] = tested on: Bacteroides fragilis GM 7000; assay: In vitro antibacterial activity, MIC (standard strain); details: GM7000; Bacteroides fragilis GM 7000, 10^6 cells/ml, standard strain; read-out: MIC
[4] = tested on: S. pyogenes 3102; assay: In vitro antibacterial activity, MIC (clinical isolates); details: Streptococcus pyogenes; S. pyogenes 3102, 10^6 cells/ml, clinical isolate
[5] = tested on: B. thetaiotaomicron (0661); assay: In vitro antibacterial activity, MIC (standard strain); details: Bacteroides thetaiotaomicron; B. thetaiotaomicron (0661), 10^6 cells/ml, standard strain; read-out: MIC
[6] = tested on: E. coli ML4707; assay: MIC against the infecting strain (Table 2); details: Escherichia coli; E. coli ML4707 (Table 2, parts 1 and 2)
Procedure: The in vitro antibacterial activity has been investigated, the minimun inhibitory concentration (MIC) was determined in accordance with the method recommended by Japan Society of Chemotherapy.

[7] = tested on: S. pyogenes 3107; assay: In vitro antibacterial activity, MIC (clinical isolates); details: Streptococcus pyogenes; S. pyogenes 3107, 10^6 cells/ml, clinical isolate
[8] = tested on: S. agalactiae 4468; assay: as above; details: Streptococcus agalactiae; S. agalactiae 4468, 10^6 cells/ml, clinical isolate
[9] = tested on: Veillonella parvula KYA 10790; assay: In vitro antibacterial activity, MIC (standard strain); details: KYA10790, Veillonella parvula KYA 10790, 10^6 cells/ml
[10] = tested on: S. pneumoniae IID 552; assay: as above; details: Streptococcus pneumoniae, IID552, S. pneumoniae IID 552, 10^6 cells/ml
[11] = tested on: Klebsiella pneumoniae I-220S; assay: as above; details: I220S; Klebsiella pneumoniae I-220S, 10^6 cells/ml, standard strain; read-out: MIC
[12] = tested on: K. pneumoniae KY(GN)6445; assay: as above; details: Klebsiella pneumoniae
[13] = tested on: Pseudomonas aeruginosa V-1; assay: as above; details: V1; Pseudomonas aeruginosa V-1, 10^6 cells/ml, standard strain; read-out: MIC
[14] = tested on: Acinetobacter anitratus IID 876; assay: as above; details: Acinetobacter calcoaceticus, IID876; Acinetobacter anitratus IID 876, 10^6 cells/ml, standard strain; read-out: MIC
[15] = tested on: Pst. micros UPI 5464-1; assay: as above; details: Parvimonas micra, UPI54641, Pst. micros UPI 5464-1, 10^6 cells/ml
[16] = tested on: S. pneumoniae 15; assay: In vitro antibacterial activity, MIC (clinical isolates); details: Streptococcus pneumoniae; S. pneumoniae 15, 10^6 cells/ml, clinical isolate
[17] = tested on: S. pneumoniae 2054; assay: as above; details: Streptococcus pneumoniae; S. pneumoniae 2054, 10^6 cells/ml, clinical isolate
[18] = tested on: Serratia marcescens IID 618; assay: In vitro antibacterial activity, MIC (standard strain); details: IID618, Serratia marcescens IID 618, 10^6 cells/ml, read-out: MIC
[19] = tested on: S. pyogenes 4372; assay: In vitro antibacterial activity, MIC (clinical isolates); details: Streptococcus pyogenes; S. pyogenes 4372, 10^6 cells/ml, clinical isolate
[20] = tested on: Enterobacter cloacae IID 977; assay: In vitro antibacterial activity, MIC (standard strain); details: IID977, Enterobacter cloacae IID 977, 10^6 cells/ml
[21] = tested on: S. agalactiae 4342; assay: In vitro antibacterial activity, MIC (clinical isolates); details: Streptococcus agalactiae; S. agalactiae 4342, 10^6 cells/ml, clinical isolate
[22] = tested on: S. pneumoniae 2950; assay: as above; details: Streptococcus pneumoniae; S. pneumoniae 2950, 10^6 cells/ml, clinical isolate
[23] = tested on: S. epidermidis IID 866; assay: In vitro antibacterial activity, MIC (standard strain); details: Staphylococcus epidermidis, IID866, S. epidermidis IID 866, 10^6 cells/ml
[24] = tested on: S. faecalis 402; assay: In vitro antibacterial activity, MIC (clinical isolates); details: Enterococcus faecalis; S. faecalis 402, 10^6 cells/ml, clinical isolate
[25] = tested on: B. fragilis 25285; assay: In vitro antibacterial activity, MIC (standard strain); details: Bacteroides fragilis; B. fragilis 25285, 10^6 cells/ml, standard strain; read-out: MIC
[26] = tested on: S. faecalis 401; assay: In vitro antibacterial activity, MIC (clinical isolates); details: Enterococcus faecalis; S. faecalis 401, 10^6 cells/ml, clinical isolate
[27] = tested on: S. pyogenes 4340; assay: as above; details: Streptococcus pyogenes; S. pyogenes 4340, 10^6 cells/ml, clinical isolate
[28] = tested on: S. faecalis 49; assay: as above; details: Enterococcus faecalis; S. faecalis 49, 10^6 cells/ml, clinical isolate
[29] = tested on: P. morganii IID 602; assay: In vitro antibacterial activity, MIC (standard strain); details: Morganella morganii, IID602; P. morganii IID 602, 10^6 cells/ml, standard strain; read-out: MIC
[30] = tested on: Alcaligenes faecalis 0114002; assay: as above; details: Alcaligenes faecalis 0114002, 10^6 cells/ml
[31] = tested on: Yersinia enterocolitica IID 981; assay: as above; details: IID981; Yersinia enterocolitica IID 981, 10^6 cells/ml, standard strain; read-out: MIC
[32] = tested on: S. pyogenes IID 692; assay: as above; details: Streptococcus pyogenes, IID692, S. pyogenes IID 692, 10^6 cells/ml
[33] = tested on: C. perfringens KYA (ATCC) 13123; assay: microbe, parasite or virus in culture; details: Clostridium perfringens

| Structure (SMILES) | MIC [1] [µg/mL] | MIC [2] [µg/mL] | MIC [3] [µg/mL] | MIC [4] [µg/mL] | MIC [5] [µg/mL] | MIC [6] [µg/mL] | MIC [7] [µg/mL] | MIC [8] [µg/mL] | MIC [9] [µg/mL] | MIC [10] [µg/mL] | MIC [11] [µg/mL] | MIC [13] [µg/mL] | MIC [14] [µg/mL] | MIC [15] [µg/mL] | MIC [16] [µg/mL] | MIC [17] [µg/mL] | MIC [18] [µg/mL] | MIC [19] [µg/mL] | MIC [20] [µg/mL] | MIC [21] [µg/mL] | further results |
| --- | --- | --- | --- | --- | --- | --- | --- | --- | --- | --- | --- | --- | --- | --- | --- | --- | --- | --- | --- | --- | --- |
| CC1CN(c2c(F)cc3c(=O)c(C(=O)O)cn(C4CC4)c3c2F)CCN1 (stereo not drawn) [Example 2, l-Cyclopropyl-6,8-difluoro-l,4-dihydro-7-(3-methyl-l-piperazinyl)-4-oxoquinoline-3-carboxylic acid] | 0.78 (≈ 2.15 µM) | 1.56 (≈ 4.29 µM) | 1.56 (≈ 4.29 µM) | 0.78 (≈ 2.15 µM) | 3.13 (≈ 8.61 µM) | 0.0125 (≈ 0.0344 µM) | 0.78 (≈ 2.15 µM) | 0.78 (≈ 2.15 µM) | 0.2 (≈ 0.55 µM) | 0.78 (≈ 2.15 µM) | 0.05 (≈ 0.138 µM) | 0.2 (≈ 0.55 µM) | 0.006 (≈ 0.0165 µM) | 0.2 (≈ 0.55 µM) | 0.78 (≈ 2.15 µM) | 1.56 (≈ 4.29 µM) | 0.05 (≈ 0.138 µM) | 0.78 (≈ 2.15 µM) | 0.05 (≈ 0.138 µM) | 0.78 (≈ 2.15 µM) | MIC [12]: 0.0125 µg/mL (≈ 0.0344 µM); MIC [22]: 1.56 µg/mL (≈ 4.29 µM); MIC [23]: 0.2 µg/mL (≈ 0.55 µM); MIC [24]: 1.56 µg/mL (≈ 4.29 µM); MIC [25]: 0.78 µg/mL (≈ 2.15 µM); MIC [26]: 1.56 µg/mL (≈ 4.29 µM); MIC [27]: 0.78 µg/mL (≈ 2.15 µM); MIC [28]: 0.78 µg/mL (≈ 2.15 µM); MIC [29]: 0.05 µg/mL (≈ 0.138 µM); MIC [30]: 0.2 µg/mL (≈ 0.55 µM); MIC [31]: 0.05 µg/mL (≈ 0.138 µM); MIC [32]: 0.78 µg/mL (≈ 2.15 µM); MIC [33]: 0.78 µg/mL (≈ 2.15 µM) |
| CC1CN(c2c(F)cc3c(=O)c(C(=O)O)cn(C4CC4)c3c2Cl)CCN1 (stereo not drawn) [Example 5, 8-Chloro-l-cyclopropyl-6-fluoro-1,4-dihydro-7-(3-methyl-1-piperazinyl)-4-oxoquinoline-3-carboxylic acid hydrochloride] | 0.78 | 0.78 | 0.39 | 0.39 | 1.56 | 0.0125 | 0.39 | 0.39 | 0.2 | 0.78 | 0.05 | 0.78 | 0.05 | 0.2 | 0.78 | 0.78 | 0.05 | 0.39 | 0.05 | 0.78 | MIC ([12]; K. pneumoniae KY(GN)6445, 10^6 cells/ml, standard strain, read-out: MIC): 0.025 µg/mL; MIC [22]: 0.78 µg/mL; MIC [23]: 0.1 µg/mL; MIC [24]: 0.78 µg/mL; MIC [25]: 0.39 µg/mL; MIC [26]: 0.78 µg/mL; MIC [27]: 0.39 µg/mL; MIC [28]: 0.78 µg/mL; MIC [29]: 0.1 µg/mL; MIC [30]: 0.39 µg/mL; MIC [31]: 0.05 µg/mL; MIC [32]: 0.78 µg/mL; MIC [33]: 0.78 µg/mL |
